The results in this text go back to US9346809B2 (LEO PHARMA A/S, priority 2009, dated 2016).

Read-outs that look alike come from different tables or passages of the source. Some results are limits rather than exact numbers.

Format in all cases: biochemical
Experiment [1] has as its target T1, JAK3 (catalytic domain, His-tag) (Homo sapiens, UniProt P52333).
T1 construct: All four purified enzymes contain only the catalytic domain; His (N); purchased Carna Biosciences, Inc; host or cells: baculovirus expression system
The experiment in a line: JAK kinase assay (HTRF, phosphorylation of TK substrate-biotin), JAK3. Conditions: ATP at Km (2 μM). Put shortly: (§1)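 Compound was mixed with TK substrate-biotin (1 μM final), then kinase plus ATP at its Km was added and left 20-30 min at room temperature. Detection mix with EDTA, Streptavidin-XL665 and STK Ab Cryptate stopped the reaction; after overnight dark incubation, HTRF was read and EC50 derived.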
Background: Time-resolved FRET reads energy transfer from a long-lived donor to a nearby acceptor.

Experiment [2] has as its target T2, TYK2 (aa 871-1187, catalytic domain, GST-tag) (Homo sapiens, UniProt P29597).
T2 construct: JAK1 (aa 850-1154) and TYK2 (aa 871-1187) are expressed with an N-terminally fused GST-tag; GST (N); purchased Carna Biosciences, Inc; host or cells: baculovirus expression system
T2 sequence (P29597 871-1187): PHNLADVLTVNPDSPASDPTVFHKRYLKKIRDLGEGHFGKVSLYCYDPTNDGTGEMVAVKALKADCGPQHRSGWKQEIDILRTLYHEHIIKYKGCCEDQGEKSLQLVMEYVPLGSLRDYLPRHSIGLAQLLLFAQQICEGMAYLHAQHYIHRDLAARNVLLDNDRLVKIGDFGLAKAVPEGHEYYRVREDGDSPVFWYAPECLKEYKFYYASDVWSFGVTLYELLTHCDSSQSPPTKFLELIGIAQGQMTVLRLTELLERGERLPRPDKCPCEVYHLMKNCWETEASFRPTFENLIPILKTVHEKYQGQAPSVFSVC
The experiment in a line: JAK kinase assay (HTRF, phosphorylation of TK substrate-biotin), TYK2. Conditions: ATP at Km (13 μM). The procedure, abridged: as §1

The target in experiment [3] is T3, JAK2 (catalytic domain, His-tag) (Homo sapiens, UniProt O60674).
T3 construct: All four purified enzymes contain only the catalytic domain; His (N); purchased Carna Biosciences, Inc; host or cells: baculovirus expression system
T3 sequence (O60674 849-1124 limits assumed): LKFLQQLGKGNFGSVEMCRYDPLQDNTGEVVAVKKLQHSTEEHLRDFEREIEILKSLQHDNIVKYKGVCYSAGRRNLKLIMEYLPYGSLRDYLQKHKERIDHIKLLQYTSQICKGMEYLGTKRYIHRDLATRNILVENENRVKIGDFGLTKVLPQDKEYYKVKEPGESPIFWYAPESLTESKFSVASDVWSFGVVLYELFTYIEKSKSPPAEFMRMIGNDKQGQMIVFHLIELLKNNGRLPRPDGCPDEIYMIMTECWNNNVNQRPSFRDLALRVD
The experiment in a line: JAK kinase assay (HTRF, phosphorylation of TK substrate-biotin), JAK2. The following applies: ATP at Km (4 μM). Put shortly:
as §1

Experiment [4] deals with T4, JAK1 (aa 850-1154, catalytic domain, GST-tag) (Homo sapiens, UniProt P23458).
T4 construct: JAK1 (aa 850-1154) and TYK2 (aa 871-1187) are expressed with an N-terminally fused GST-tag; GST (N); purchased Carna Biosciences, Inc; host or cells: baculovirus expression system
T4 sequence (P23458 850-1154): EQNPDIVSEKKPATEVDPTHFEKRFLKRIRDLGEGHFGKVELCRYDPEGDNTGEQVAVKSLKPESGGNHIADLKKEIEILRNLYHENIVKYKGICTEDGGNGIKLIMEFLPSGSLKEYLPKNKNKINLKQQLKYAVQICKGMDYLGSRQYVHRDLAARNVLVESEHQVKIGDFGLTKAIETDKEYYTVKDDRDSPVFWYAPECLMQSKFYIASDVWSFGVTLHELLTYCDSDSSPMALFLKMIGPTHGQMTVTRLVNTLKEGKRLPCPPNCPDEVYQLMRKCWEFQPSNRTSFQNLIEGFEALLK
The experiment in a line: JAK kinase assay (HTRF, phosphorylation of TK substrate-biotin), JAK1. Conditions: ATP at Km (7 μM). The procedure, abridged: as §1

Setting [5] is: HTRF assay, read-out: JAK3 kinase inhibitory activity (EC50 indicator).
The mark [6] stands for this setting: HTRF assay, read-out: TYK2 kinase inhibitory activity (EC50 indicator).
Setting [7] is: HTRF assay, read-out: JAK2 kinase inhibitory activity (EC50 indicator).
The mark [8] stands for this setting: HTRF assay, read-out: JAK1 kinase inhibitory activity (EC50 indicator).
Setting [9] is: read-out: JAK3 kinase inhibitory activity (EC50 indicator).
The mark [10] stands for this setting: read-out: TYK2 kinase inhibitory activity (EC50 indicator).
Setting [11] is: read-out: JAK2 kinase inhibitory activity (EC50 indicator).
Where [12] appears, read: read-out: JAK1 kinase inhibitory activity (EC50 indicator).

Usually EC50 stands for the concentration needed to bring the measured effect to its halfway point.

T1 sequence (P52333 822-1111 limits assumed): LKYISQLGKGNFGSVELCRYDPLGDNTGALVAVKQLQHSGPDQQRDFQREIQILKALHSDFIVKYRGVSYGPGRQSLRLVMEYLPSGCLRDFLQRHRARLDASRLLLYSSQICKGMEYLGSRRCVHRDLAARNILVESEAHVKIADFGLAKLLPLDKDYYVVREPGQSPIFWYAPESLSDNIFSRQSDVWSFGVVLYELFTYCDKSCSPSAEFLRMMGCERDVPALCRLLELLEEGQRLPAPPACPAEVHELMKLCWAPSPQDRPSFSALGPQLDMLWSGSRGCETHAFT

`COc1cnc2[nH]ccc2c1N1CCN(C(=O)Cc2ccc(C#N)cc2)C2(CC2)C1` [Example 295, 4-{2-[7-(5-Methoxy-1H-pyrrolo[2,3-b]pyridin-4-yl)-4,7-diaza-spiro[2.5]oct-4-yl]-2-oxo-ethyl}-benzonitrile]: the EC50 is under 100 nM in experiment [1] (setting [5]), over 500 nM in experiment [2] (setting [6]), under 100 nM in experiment [3] (setting [7]) and 100 to 500 nM in experiment [4] (setting [8]).
Turning to `CN(CCC#N)C(=O)C1(C(=O)N2CCN(c3ncnc4[nH]ccc34)CC23CC3)CC1` [Example 87, 1-[7-(7H-Pyrrolo[2,3-d]pyrimidin-4-yl)-4,7-diaza-spiro[2.5]octane-4-carbonyl]-cyclopropanecarboxylic acid (2-cyano-ethyl)-methyl-amide], the EC50 in experiment [1] (setting [9]), in experiment [2] (setting [10]), in experiment [3] (setting [11]) and in experiment [4] (setting [12]) was over 500 nM throughout.
With `COc1cc(C(=O)N2[C@@H]3CC[C@H]2CN(c2ncnc4[nH]ccc24)C3)cs1` [Example 108, (5-Methoxy-thiophen-3-yl)-[3-(7H-pyrrolo[2,3-d]pyrimidin-4-yl)-3,8-diaza-bicyclo[3.2.1]oct-8-yl]-methanone], the EC50 in experiment [1] (setting [9]) was under 100 nM; in experiment [2] (setting [10]), over 500 nM; in experiment [3] (setting [11]), under 100 nM; in experiment [4] (setting [12]), under 100 nM.
Consider `O=C(c1cccc2[nH]ccc12)N1[C@@H]2CC[C@H]1CN(c1ncnc3[nH]ccc13)C2` [Example 344, (1H-Indol-4-yl)-[3-(7H-pyrrolo[2,3-d]pyrimidin-4-yl)-3,8-diaza-bicyclo[3.2.1]oct-8-yl]-methanone], for which the EC50 in experiment [1] (setting [5]) was under 100 nM; in experiment [2] (setting [6]) it was 100 to 500 nM; in experiment [3] (setting [7]), under 100 nM; in experiment [4] (setting [8]) it was 100 to 500 nM.
With `Cc1ccc2sc(C(=O)N3[C@@H]4CC[C@H]3CN(c3ncnc5[nH]ccc35)C4)cc2c1` [Example 247, (5-Methyl-benzo[b]thiophen-2-yl)-[3-(7H-pyrrolo[2,3-d]pyrimidin-4-yl)-3,8-diaza-bicyclo[3.2.1]oct-8-yl]-methanone], the EC50 is 100 to 500 nM in experiment [1] (setting [5]), over 500 nM in experiment [2] (setting [6]), under 100 nM in experiment [3] (setting [7]) and under 100 nM in experiment [4] (setting [8]).
`O=C(c1ccccc1)N1[C@@H]2CC[C@H]1CN(c1ncnc3[nH]ccc13)C2` [Example 33, Phenyl-[3-(7H-pyrrolo[2,3-d]pyrimidin-4-yl)-3,8-diazabicyclo[3.2.1]oct-8-yl]methanone]: the 50% effective concentration (EC50) in experiment [1] (setting [9]) is 100 to 500 nM; in experiment [2] (setting [10]), 100 to 500 nM; in experiment [3] (setting [11]), under 100 nM; in experiment [4] (setting [12]), under 100 nM.
`O=C(c1cc2ccc(F)cc2[nH]1)N1CCN(c2ncnc3[nH]ccc23)CC12CC2` [Example 363, (6-Fluoro-1H-indol-2-yl)-[7-(7H-pyrrolo[2,3-d]pyrimidin-4-yl)-4,7-diaza-spiro[2.5]oct-4-yl]-methanone]: the EC50 in experiment [1] (setting [5]) was under 100 nM; in experiment [2] (setting [6]) it was 100 to 500 nM; in experiment [3] (setting [7]) it was under 100 nM; in experiment [4] (setting [8]), under 100 nM.
For the compound `COCCCNC(=S)N1[C@@H]2CC[C@H]1CN(c1ncnc3[nH]ccc13)C2` [Example 39, 3-(7H-Pyrrolo[2,3-d]pyrimidin-4-yl)-3,8-diazabicyclo[3.2.1]octane-8-carbothioic acid (3-methoxy-propyl)amide], the EC50 in experiment [1] (setting [9]) was over 500 nM; in experiment [2] (setting [10]), over 500 nM; in experiment [3] (setting [11]), 100 to 500 nM; in experiment [4] (setting [12]) it was over 500 nM.
Regarding `N#CCc1ccc(C(=O)N2CCN(c3ncnc4[nH]ccc34)CC23CC3)cc1` [Example 18, {4-[7-(7H-Pyrrolo[2,3-d]pyrimidin-4-yl)-4,7-diazaspiro[2.5]octane-4-carbonyl]-phenyl}acetonitrile], the EC50 is 100 to 500 nM in experiment [1] (setting [9]), 100 to 500 nM in experiment [2] (setting [10]), under 100 nM in experiment [3] (setting [11]) and under 100 nM in experiment [4] (setting [12]).
Regarding `O=C([C@@H]1CCCc2ccccc21)N1CCN(c2ncnc3[nH]ccc23)CC12CC2` [Example 415, [7-(7H-Pyrrolo[2,3-d]pyrimidin-4-yl)-4,7-diaza-spiro[2.5]oct-4-yl]-(1,2,3,4-tetrahydro-naphthalen-1-yl)-methanone], the half-maximal effective concentration (EC50) is over 500 nM in experiment [1] (setting [5]), over 500 nM in experiment [2] (setting [6]), 100 to 500 nM in experiment [3] (setting [7]) and 100 to 500 nM in experiment [4] (setting [8]).
For the compound `N#CCCC(=O)N1[C@@H]2CC[C@@H]1CN(c1ncnc3[nH]ccc13)C2` [Example 182, 4-Oxo-4-[3-(7H-pyrrolo[2,3-d]pyrimidin-4-yl)-3,8-diaza-bicyclo[3.2.1]oct-8-yl]-butyronitrile], the 50% effective concentration (EC50) in experiment [1] (setting [9]) was 100 to 500 nM; in experiment [2] (setting [10]), 100 to 500 nM; in experiment [3] (setting [11]), under 100 nM; in experiment [4] (setting [12]), under 100 nM.
On to `N#Cc1cccc(C(=O)N2CCN(c3ncnc4[nH]cc(Cl)c34)CC23CC3)c1` [Example 316, 3-[7-(5-Chloro-7H-pyrrolo[2,3-d]pyrimidin-4-yl)-4,7-diaza-spiro[2.5]octane-4-carbonyl]-benzonitrile], for which the EC50 in experiment [1] (setting [5]) is 100 to 500 nM; in experiment [2] (setting [6]), over 500 nM; in experiment [3] (setting [7]) it was 100 to 500 nM; in experiment [4] (setting [8]), over 500 nM.
Turning to `O=C(Cc1ccccc1)N1[C@@H]2CC[C@H]1CN(c1ncnc3[nH]ccc13)C2` [Example 32, 2-Phenyl-1-[3-(7H-pyrrolo[2,3-d]pyrimidin-4-yl)-3,8-diazabicyclo[3.2.1]oct-8-yl]ethanone], the EC50 was over 500 nM in experiment [1] (setting [9]), over 500 nM in experiment [2] (setting [10]), 100 to 500 nM in experiment [3] (setting [11]) and 100 to 500 nM in experiment [4] (setting [12]).
For the compound `COc1cnc2[nH]ccc2c1N1CCN(C(=O)c2cc3ccccc3s2)C2(CC2)C1` [Example 284, Benzo[b]thiophen-2-yl-[7-(5-methoxy-1H-pyrrolo[2,3-b]pyridin-4-yl)-4,7-diaza-spiro[2.5]oct-4-yl]-methanone], the concentration giving a half-maximal response (EC50) in experiment [1] (setting [5]), in experiment [2] (setting [6]), in experiment [3] (setting [7]) and in experiment [4] (setting [8]) was over 500 nM each time.
Turning to `O=C(NCCc1ccccc1)N1CCN(c2ncnc3[nH]ccc23)CC12CC2` [Example 445, 7-(7H-Pyrrolo[2,3-d]pyrimidin-4-yl)-4,7-diaza-spiro[2.5]octane-4-carboxylic acid phenethyl-amide], the EC50 in experiment [1] (HTRF assay, read-out: JAK3 kinase inhibitory activity (EC50)) is 100 to 500 nM; in experiment [2] (HTRF assay, read-out: TYK2 kinase inhibitory activity (EC50)), over 500 nM; in experiment [3] (HTRF assay, read-out: JAK2 kinase inhibitory activity (EC50)) it was under 100 nM; in experiment [4] (HTRF assay, read-out: JAK1 kinase inhibitory activity (EC50)), under 100 nM.
Consider `N#CCCCC(=O)N1CCN(c2ncnc3[nH]ccc23)CC12CC2` [Example 298, 5-Oxo-5-[7-(7H-pyrrolo[2,3-d]pyrimidin-4-yl)-4,7-diaza-spiro[2.5]oct-4-yl]-pentanenitrile], for which the EC50 in experiment [1] (setting [5]) was under 100 nM; in experiment [2] (setting [6]) it was 100 to 500 nM; in experiment [3] (setting [7]), under 100 nM; in experiment [4] (setting [8]) it was under 100 nM.
As for `N#Cc1ccc(C(=O)N2[C@@H]3CC[C@H]2CN(c2ncnc4[nH]ccc24)C3)s1` [Example 71, 5-[3-(7H-Pyrrolo[2,3-d]pyrimidin-4-yl)-3,8-diaza-bicyclo[3.2.1]octane-8-carbonyl]-thiophene-2-carbonitrile], the EC50 is under 100 nM in experiment [1] (setting [9]), 100 to 500 nM in experiment [2] (setting [10]), under 100 nM in experiment [3] (setting [11]) and under 100 nM in experiment [4] (setting [12]).
Regarding `O=C(C1CCS(=O)(=O)CC1)N1CCN(c2ncnc3[nH]ccc23)CC12CC2` [Example 13, (1,1-Dioxo-hexahydro-1lambda*6*-thiopyran-4-yl)[7-(7H-pyrrolo[2,3-d]pyrimidin-4-yl)-4,7-diazaspiro[2.5]oct-4-yl]methanone], the EC50 was 100 to 500 nM in experiment [1] (setting [9]), over 500 nM in experiment [2] (setting [10]), 100 to 500 nM in experiment [3] (setting [11]) and 100 to 500 nM in experiment [4] (setting [12]).
With `O=C(c1ccc2[nH]ccc2c1)N1CCN(c2ncnc3[nH]ccc23)CC12CC2` [Example 157, (1H-Indol-5-yl)-[7-(7H-pyrrolo[2,3-d]pyrimidin-4-yl)-4,7-diaza-spiro[2.5]oct-4-yl]-methanone], the EC50 is under 100 nM in experiment [1] (setting [9]), 100 to 500 nM in experiment [2] (setting [10]), under 100 nM in experiment [3] (setting [11]) and under 100 nM in experiment [4] (setting [12]).
